The values that follow come from patent US20170057910A1, “ANTITUMOR NAPHTHALENYL BENZAMIDE DERIVATIVES” (THE CLEVELAND CLINIC FOUNDATION, priority 2015, published 2017).

One series deals with 5TGM1-luc cells. Briefly: Immunocompetent systemic mouse myeloma model (5TGM1-luc). Type of series: in vivo. The settings on record: for anti-MM activity in vivo (imaging, time to death or euthanasia): albumin-based solutions, CCF642 IV then IP 1-12 mg/kg, CCF1172 IP three times a week 22 then 44 mg/kg; for adverse events by clinical observations and weekly weight measurements: three times a week clinical observations, increasing doses. The protocol:
C57BL/KaLwRij mice were injected with 4×10^6 5 TGM1-luc cells per mouse via the tail vein. The next day, treatments were started. Compounds were diluted from DMSO stock into aqueous bovine serum albumin (Sigma, cat. # A7030) solution, supplemented, after compound addition, with NaCl to a final NaCl concentration of 150 mM. In this pilot experiment we aimed to evaluate general tolerance and activity using increasing doses. CCF642 was given in 10% BSA IV twice a week for the first three weeks followed by IP three times a week. IV doses started with 1 mg/kg (3% DMSO) and increased by 1 mg/kg per week (6% DMSO in the second and 10% DMSO in the third week). IP doses started with 6 mg/kg in week 4 and from week 5 onwards used 12 mg/kg (10% DMSO in both). CCF1172 (obtained from SPECS) was given IP three times a week, 22 mg/kg in the first two weeks, then 44 mg/kg (10% BSA, 10% DMSO).

Another series concerns MM1.S-luc. Briefly: Three organ system sandwich assay, MM luciferase activity. The series is classed as cell-based. From the text: (§1) FIG. 1A, FIG. 1B, and FIG. 1C provide a scheme showing a sandwich three organ system assay, structures of lead compounds, and a graph of cell viability. Development of the three organ system sandwich assay yields structurally distinct promising anti-myeloma compounds. (a) To address the objective of identifying new clinically translatable treatments for the incurable cancer multiple myeloma (MM) that disrupt critical programs for this malignancy while sparing normal bone marrow, the inventors submitted hits from a mechanistically unbiased primary anti-MM screen to tests that modeled key components of the in vivo situation, initially separately, then in one multi-layered sandwich assay, followed by assessment of anti-MM activity in a panel of genetically heterogeneous MM cell lines.
(§2) Sandwich assay: HS-5 bone marrow stromal cells which secrete hematopoietic growth factors including multiple myeloma (MM) supporting IL-6 are grown to confluence on Transwell™ inserts before firefly luciferase expressing MM1.S cells are added and incubated overnight. […] Three to four days later MM luciferase activity is measured and viability of NL BM, constantly drug exposed for maximal stringency, is assessed by trypan blue exclusion using Vicell™ flow.

A short description of series [1]: Three organ system sandwich assay, normal bone marrow viability by trypan blue exclusion. The series is classed as cell-based. The settings on record: human, read-out: reduction of viable NLBM cells.
Source text: as §1, §2

The next series concerns MM cell lines. The series can be described thus: Anti-MM activity in a panel of genetically heterogeneous MM cell lines. Type of series: cell-based. From the text:
(§3) Cell lines: Multiple myeloma cell lines MM1.S, MM1.R, NCI-H929 were obtained from ATCC. MM cell lines KMS-12-PE and KMS-12-BM were from the JCRB, JJN-3 from DSMZ, and 5TGM1-luc cells were from Dr. Yoneda at the University of Texas Health Science at San Antonio. HRMM.09 cells were generated in the inventor's lab from a patient who developed refractory myeloma after treatment with steroids, IMiD, proteasome inhibitors, DNA alkylators, and anthracyclines. MM1.S-luc and HRMM.09-luc were generated in the inventor's laboratory by transduction with Cignal™ firefly luciferase control lentivirus obtained from Qiagen™ Lymphoma cells were generated by Mitchell Smith. All MM and lymphoma cells were grown in RPMI 1640 (NaCl 103.45 mM, NaCO3 23.81 mM, Na2HPO4 5.63 mM, KCl 5.33 mM, Ca(NO3)2 4H2O 0.424 mM, MgSO4 0.407 mM, pH around 7.2), supplemented with 10% fetal bovine serum, penicillin G (50 units ml^−1), and streptomycin (50 μM ml^−1). HS-5 cells were grown in appropriate cell culture media. Normal bone marrow cells were obtained from discarded bags of bone marrow grafts from healthy donors and either kept in RPMI with 25% (v/v) HS-5 supernatant for up to 14 days for isolated cytotoxicity assays or frozen and thawed for the sandwich assay. All cells were cultured at 37° C., 5% CO2 in humidified air.
Taking a mechanistically unbiased approach to drug discovery the inventors developed a sandwich assay that selected anti-MM compounds from a primary ATP-based 30,000 small molecule screen for lack of toxicity on normal bone marrow, stability towards liver enzymes, and activity in the context of cell barriers, bone marrow stromal support, and short, kidney-clearance-like exposure. CCF1172 emerged as one of three promising compounds and had sub-μM IC50 potency in all 8 MM cells tested and 6 of 7 lymphoma cell lines.

The test system of a further series is lymphoma cell lines. The series can be described thus: Activity in lymphoma cell lines. The series is classed as cell-based. To be noted: 6 of 7 lymphoma cell lines.
Source text: as §3, with “air. […]” for “air.”

The next series relates to refractory myeloma. To be noted: cited from earlier work.

Entries after “also recorded” stand apart in the source; their conditions may differ.

`COc1ccc(N2C(=O)/C(=C\c3ccc([N+](=O)[O-])s3)SC2=S)cc1` [CCF642, reference compound]: in the series with 5TGM1-luc cells, the “anti-MM activity in vivo (imaging, time to death or euthanasia)” value is given as “had anti-MM activity”; the “adverse events by clinical observations and weekly weight measurements” value was “No obvious adverse events”.

With `O=C(Nc1cccc2ccccc12)c1cc(Cl)ccc1O` [CCF1172], the “effectiveness in the sandwich assay compared with CCF642 and CCF1118” value in the series with MM1.S-luc is “equally effective”. For the same compound, the “reduction of MM1.S-luc luminescence” value in the series on MM1.S-luc (15 μM) is recorded as 70-80%. For the same compound, the cytotoxicity at 15 μM in series [1] is under 30%. Moreover, in the series on MM cell lines (MM cell line panel), the “potency in the MM cell line panel compared with CCF642 and CCF1118” value is listed as “less potent”. Besides, the “IC50 potency in MM cells” value in the series on MM cell lines (all 8 MM cells tested) is recorded as “sub-μM”. Moreover, the “activity against genetically heterogenous MM cell lines” value in the series with MM cell lines (seven MM cell lines) is on record as “uniform activity”. Also, the “IC50 potency in lymphoma cell lines” value in the series on lymphoma cell lines was “sub-μM”. Moreover, in the series with 5TGM1-luc cells, the “anti-MM activity in vivo (imaging, time to death or euthanasia)” value is “demonstrated in vivo activity; also recorded: had anti-MM activity”; the “adverse events by clinical observations and weekly weight measurements” value was “No obvious adverse events”.

As for “Daratumumab: the first anti-CD38 antibody for use in myeloma”, the overall response rate result in the series on refractory myeloma (single agent, refractory myeloma patients) was “about 30%”. Further, in the series on refractory myeloma (two phase studies, patients with refractory myeloma), the “survival relative to expected survival” value is “over twice of expected survival”.
